In US12329753B2, “Phosphodiesterase inhibitor treatment” (Cyrano Therapeutics, Inc., priority 2008, dated 2025):

Test system: asthmatic patients
Test: sGaw after inhaled dry powder in asthmatic patients, single blind study (Examples 5, 6)
Format: in vivo, human
Conditions: dry powder 1 mg inhaled
Method: (§1) To test this theory, asthmatic patients are enrolled in a dose escalating single blind study. On arrival to the clinic, subjects are allowed to rest for 20 minutes before baseline measurements of FEV1 (six recordings) and sGaw (five recordings) are made. Subjects receive a dry powder dispenser loaded with a dose of 2 mg theophylline or a dry powder carrier. […] After each inhalation, measurements of sGaw are made at 1, 3, 5, 10, 15, 20, 25, and 30 minutes.
On completion of the last recording, subjects inhale a 200 μg dose of salbutamol from a metered inhaler and a further measurement of sGaw is made after 15 minutes. Subjects are also monitored for coughing and are questioned about the taste of the drug.
as §1, with “Asthmatic patients” for “To test this theory, asthmatic patients”, “of 1” for “of 2”, “mg IBMX formulated as a dry powder” for “mg theophylline”
On completion of the last recording, subjects inhale a 200 μg dose of salbutamol from a metered inhaler and a further measurement of sGaw mad after 15 minutes. Subjects are also be monitored for coughing and are questioned about the taste of the drug.

SMILES: CC(C)Cn1c(=O)n(C)c(=O)c2[nH]cnc21 [IBMX, 3-isobutyl-1-methylxanthine]
- increase in sGaw versus 200 μg salbutamol: comparable with that produced by salbutamol
- time until sGaw baseline is reached: one and a half hours
- sGaw above baseline measurement (after 30 minutes): 20%
